In assay [1] the test system is Rattus norvegicus. Put plainly: Induction of FSH release in immature male rat at 100 ng, sc measured after 15 mins to 6 hrs post dose by RIA relative to LH-RH.
In assay [2] the test system is Rattus norvegicus. In words: Induction of luteinizing hormone release in immature male rat at 100 ng, sc measured after 15 mins to 6 hrs post dose by RIA relative to LH-RH.
In assay [3] the test system is Rattus norvegicus. In words: Induction of luteinizing hormone release in ovariectomized estrogen/progesterone-treated rat at 10 ng, sc measured at 30 mins post dose by RIA (reference value: 5.3 +/- 1.5 ng/ml). Format: functional.
Assay [4] relates to Rattus norvegicus. Put plainly: Induction of luteinizing hormone release in ovariectomized estrogen/progesterone-treated rat at 50 ng, sc measured at 30 mins post dose by RIA (reference value: 5.3 +/- 1.5 ng/ml). Format: functional.
Assay [5] has as its system Rattus norvegicus. Put plainly: Induction of luteinizing hormone release in ovariectomized estrogen/progesterone-treated rat at 10 ng, sc measured at 60 mins post dose by RIA (reference value: 6.0+/- 0.4 ng/ml). The class given is functional.
In assay [6] the test system is Rattus norvegicus. Put plainly: Induction of luteinizing hormone release in ovariectomized estrogen/progesterone-treated rat at 50 ng, sc measured at 60 mins post dose by RIA (reference value: 6.0+/- 0.4 ng/ml). Format: functional.
The subject of assay [7] is Rattus norvegicus. In words: Induction of luteinizing hormone release in ovariectomized estrogen/progesterone-treated rat at 100 ng, sc measured after 30 mins post dose by RIA relative to LH-RH. The class given is functional.
Assay [8] has as its system Rattus norvegicus. Put plainly: Induction of luteinizing hormone release in ovariectomized estrogen/progesterone-treated rat at 1 ng, sc measured at 30 mins post dose by RIA (reference value: 5.3 +/- 1.5 ng/ml). The class given is functional.
The subject of assay [9] is Rattus norvegicus. Put plainly: Induction of luteinizing hormone release in ovariectomized estrogen/progesterone-treated rat at 5 ng, sc measured at 30 mins post dose by RIA (reference value: 5.3 +/- 1.5 ng/ml). Format: functional.
Assay [10] deals with Rattus norvegicus. Put plainly: Induction of luteinizing hormone release in ovariectomized estrogen/progesterone-treated rat at 1 ng, sc measured at 60 mins post dose by RIA (reference value: 6.0+/- 0.4 ng/ml). Format: functional.
Assay [11] relates to Rattus norvegicus. Put plainly: Induction of luteinizing hormone release in ovariectomized estrogen/progesterone-treated rat at 5 ng, sc measured at 60 mins post dose by RIA (reference value: 6.0+/- 0.4 ng/ml). Format: functional.

Structures are written as SMILES.

For the molecule `CC(C)C[C@H](NC(=O)[C@@H](Cc1ccccc1)NC(=O)[C@H](Cc1ccc(O)cc1)NC(=O)[C@H](CO)NC(=O)[C@H](Cc1c[nH]c2ccccc12)NC(=O)[C@H](Cc1cnc[nH]1)NC(=O)[C@@H]1CCC(=O)N1)C(=O)N[C@@H](CCCNC(=N)N)C(=O)N1CCC[C@H]1C(=O)NCC(N)=O`, the Ratio in assay [1] turned out to be 20; in assay [2], 10.
As for `CC(C)C[C@H](NC(=O)[C@@H](C)NC(=O)[C@H](Cc1ccc(O)cc1)NC(=O)[C@H](CO)NC(=O)[C@H](Cc1c[nH]c2ccccc12)NC(=O)[C@H](Cc1cnc[nH]1)NC(=O)[C@@H]1CCC(=O)N1)C(=O)N[C@@H](CCCNC(=N)N)C(=O)N1CCC[C@H]1C(=O)NCC(N)=O`, the Ratio in assay [1] is listed as 13; in [2], 7.
The like results for `CC(C)C[C@H](NC(=O)[C@@H](CCC(=O)O)NC(=O)[C@H](Cc1ccc(O)cc1)NC(=O)[C@H](CO)NC(=O)[C@H](Cc1c[nH]c2ccccc12)NC(=O)[C@H](Cc1cnc[nH]1)NC(=O)[C@@H]1CCC(=O)N1)C(=O)N[C@@H](CCCNC(=N)N)C(=O)N1CCC[C@H]1C(=O)NCC(N)=O` were, in that order, 1.5 and 1.8.
On to `CC(C)C[C@H](NC(=O)[C@@H](C)N(C)C(=O)[C@H](Cc1ccc(O)cc1)NC(=O)[C@H](CO)NC(=O)[C@H](Cc1c[nH]c2ccccc12)NC(=O)[C@H](Cc1cnc[nH]1)NC(=O)[C@@H]1CCC(=O)N1)C(=O)N[C@@H](CCCNC(=N)N)C(=O)N1CCC[C@H]1C(=O)NCC(N)=O`, for which the Activity in [3] was determined as 22.9 ng/mL; in assay [4], 47.8 ng/mL; in assay [5], 8.9 ng/mL; in assay [6] it was 18.6 ng/mL. In addition, in assay [7], the Ratio is 0.1.
Regarding `CCNC(=O)[C@@H]1CCCN1C(=O)[C@H](CCCNC(=N)N)NC(=O)[C@H](CC(C)C)NC(=O)[C@@H](Cc1ccccc1)NC(=O)[C@H](Cc1ccc(O)cc1)NC(=O)[C@H](CO)NC(=O)[C@H](Cc1c[nH]c2ccccc12)NC(=O)[C@H](Cc1cnc[nH]1)NC(=O)[C@@H]1CCC(=O)N1`, the values for the Ratio in assay [1] and in assay [2] were 7 and 8, respectively.
In the same order, the values of `CCNC(=O)[C@@H]1CCCN1C(=O)[C@H](CCCNC(=N)N)NC(=O)[C@H](CC(C)C)NC(=O)[C@@H](Cc1c[nH]c2ccccc12)NC(=O)[C@H](Cc1ccc(O)cc1)NC(=O)[C@H](CO)NC(=O)[C@H](Cc1c[nH]c2ccccc12)NC(=O)[C@H](Cc1c[nH]cn1)NC(=O)[C@@H]1CCC(=O)N1` [DESLORELIN] are 6 and 7.
In the case of `CC(C)C[C@H](NC(=O)CNC(=O)[C@H](Cc1ccc(O)cc1)NC(=O)[C@H](CO)NC(=O)[C@H](Cc1c[nH]c2ccccc12)NC(=O)[C@H](Cc1cnc[nH]1)NC(=O)[C@@H]1CCC(=O)N1)C(=O)N[C@@H](CCCNC(=N)N)C(=O)N1CCC[C@H]1C(=O)NCC(N)=O` [GONADORELIN], the Activity in [8] was 24.5 ng/mL; in assay [9], 47 ng/mL; in [10], 9.6 ng/mL; in assay [11], 15.4 ng/mL.
`CCNC(=O)[C@@H]1CCCN1C(=O)[C@H](CCCNC(=N)N)NC(=O)[C@H](CC(C)C)NC(=O)[C@@H](CC(C)C)NC(=O)[C@H](Cc1ccc(O)cc1)NC(=O)[C@H](CO)NC(=O)[C@H](Cc1c[nH]c2ccccc12)NC(=O)[C@H](Cc1c[nH]cn1)NC(=O)[C@@H]1CCC(=O)N1` [LEUPROLIDE]: the Ratio in [1] came out at 11; in [2] it was 15.
In the same order, the values of `CC(C)C[C@H](NC(=O)[C@@H](Cc1c[nH]c2ccccc12)NC(=O)[C@H](Cc1ccc(O)cc1)NC(=O)[C@H](CO)NC(=O)[C@H](Cc1c[nH]c2ccccc12)NC(=O)[C@H](Cc1c[nH]cn1)NC(=O)[C@@H]1CCC(=O)N1)C(=O)N[C@@H](CCCNC(=N)N)C(=O)N1CCC[C@H]1C(=O)NCC(N)=O` [TRIPTORELIN] are 21 and 13.

The record behind these values is ChEMBL document CHEMBL3272022, “Analogs of luteinizing hormone-releasing hormone with increased biological activity produced by D-amino acid substitutions in position 6” (1976).
